Results taken from PubChem BioAssay AID330 (DTP/NCI, 2004).
“And” between values parts separate entries of the source, which are not always exact repeats. Equal entries are not always repeated. Inconclusive results and toxic doses are left out.

Test system: P388 leukemia ip, CD2F1 mice, survival T/C
Test: NCI In Vivo Anticancer Drug Screen. Data for tumor model P388 Leukemia (intraperitoneal) in CD2F1 (CDF1) mice
Conditions: endpoint: median survival time, higher = longer survival
How it was run: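 Mice carrying the transplanted tumor received test compound or vehicle. Survival was recorded in each group, and the value is the treated-group measurement divided by that of the vehicle-treated control group.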

[1] = dose: 60.0 mg/kg/injection, schedule: Q01DX005 (ip), vehicle: Klucel (hydroxypropylcellulose) (HPC)
[2] = dose: 120.0 mg/kg/injection, schedule: Q01DX005 (ip), vehicle: Klucel (hydroxypropylcellulose) (HPC)
[3] = dose: 240.0 mg/kg/injection, schedule: Q01DX005 (ip), vehicle: Klucel (hydroxypropylcellulose) (HPC)
[4] = dose: 25.0 mg/kg/injection, schedule: Q01DX009 (ip), vehicle: saline with Tween-80
[5] = dose: 50.0 mg/kg/injection, schedule: Q01DX009 (ip), vehicle: saline with Tween-80
[6] = dose: 100.0 mg/kg/injection, schedule: Q01DX009 (ip), vehicle: saline with Tween-80
[7] = dose: 200.0 mg/kg/injection, schedule: Q01DX009 (ip), vehicle: saline with Tween-80

Question: S=P(N1CC1)(N1CC1)N1CC1 was tested. Which T/C (dose: 0.62 mg/kg/injection, schedule: Q01DX005 (ip), vehicle: saline) did it give?
Answer: 100 % of control

Question: And the T/C (dose: 0.75 mg/kg/injection, schedule: Q01DX005 (ip), vehicle: saline)?
Answer: 118 % of control

Question: What about the T/C (dose: 0.75 mg/kg/injection, schedule: Q01DX009 (ip), vehicle: saline) of the same molecule?
Answer: 106 % of control

Question: What about the T/C (dose: 1.25 mg/kg/injection, schedule: Q01DX005 (ip), vehicle: saline) of the same molecule?
Answer: 115 % of control

Question: What about the T/C (dose: 1.25 mg/kg/injection, schedule: Q04DX003 (ip), vehicle: water) of the same molecule?
Answer: 101 % of control and 110 % of control (2×)

Question: And the T/C (dose: 1.5 mg/kg/injection, schedule: Q01DX005 (ip), vehicle: saline)?
Answer: 114 % of control and 120 % of control

Question: What about the T/C (dose: 2.0 mg/kg/injection, schedule: Q01DX009 (ip), vehicle: saline) of the same molecule?
Answer: 124 % of control

Question: What about the T/C (dose: 2.5 mg/kg/injection, schedule: Q04DX003 (ip), vehicle: water) of the same molecule?
Answer: 110 % of control

Question: What about the T/C (dose: 3.0 mg/kg/injection, schedule: Q01DX005 (ip), vehicle: saline) of the same molecule?
Answer: 163 % of control

Question: And the T/C (dose: 3.0 mg/kg/injection, schedule: Q01DX009 (ip), vehicle: saline)?
Answer: 163 % of control and 174 % of control

Question: And the T/C (dose: 3.24 mg/kg/injection, schedule: Q04DX002 (ip), vehicle: saline)?
Answer: 124 % of control

Question: What about the T/C (dose: 4.0 mg/kg/injection, schedule: Q01DX009 (ip), vehicle: saline) of the same molecule?
Answer: 178 % of control

Question: What about the T/C (dose: 5.0 mg/kg/injection, schedule: Q01DX005 (ip), vehicle: saline) of the same molecule?
Answer: 169 % of control

Question: And the T/C (dose: 5.0 mg/kg/injection, schedule: Q04DX003 (ip), vehicle: water)?
Answer: 163 % of control

Question: What about the T/C (dose: 6.0 mg/kg/injection, schedule: Q01DX005 (ip), vehicle: saline) of the same molecule?
Answer: 181 % of control and 207 % of control and 90 % of control

Question: And the T/C (dose: 8.0 mg/kg/injection, schedule: Q01DX009 (ip), vehicle: saline)?
Answer: 101 % of control

Question: What about the T/C (dose: 9.0 mg/kg/injection, schedule: Q04DX002 (ip), vehicle: saline) of the same molecule?
Answer: 166 % of control

Question: What about the T/C (dose: 10.0 mg/kg/injection, schedule: Q04DX003 (ip), vehicle: water) of the same molecule?
Answer: 159 % of control and 200 % of control and 229 % of control

Question: What about the T/C (dose: 12.0 mg/kg/injection, schedule: Q01DX005 (ip), vehicle: saline) of the same molecule?
Answer: 88 % of control

Question: What about the T/C (dose: 15.0 mg/kg/injection, schedule: Q04DX002 (ip), vehicle: saline) of the same molecule?
Answer: 197 % of control

Question: And the T/C (dose: 20.0 mg/kg/injection, schedule: Q04DX003 (ip), vehicle: water)?
Answer: 110 % of control and 90 % of control and 92 % of control

Question: And the T/C (dose: 25.0 mg/kg/injection, schedule: Q04DX002 (ip), vehicle: saline)?
Answer: 240 % of control

Question: Which results are given for CCn1c2ccccc2c2cc(N=C3C(=O)N(C)c4ccccc43)ccc21?
Answer: T/C [1]: 90 % of control; T/C [2]: 92 % of control; T/C [3]: 90 % of control

Question: Which T/C [4] does the source give for COC1/C=C/OC2(C)Oc3c(C)c(O)c4c(O)c(c(/C=N/N5C(C)CN(Cc6ccc(C(C)(C)C)cc6)CC5C)c(O)c4c3C2=O)NC(=O)/C(C)=C\C=C\C(C)C(O)C(C)C(O)C(C)C(OC(C)=O)C1C (centres undefined) here?
Answer: 119 % of control

Question: And the T/C (dose: 25.0 mg/kg/injection, schedule: Q01DX009 (ip), vehicle: suspension in saline)?
Answer: 104 % of control

Question: What about the T/C [5] of the same molecule?
Answer: 102 % of control and 94 % of control

Question: And the T/C (dose: 50.0 mg/kg/injection, schedule: Q01DX009 (ip), vehicle: suspension in saline)?
Answer: 108 % of control

Question: What about the T/C [6] of the same molecule?
Answer: 119 % of control

Question: And the T/C (dose: 100.0 mg/kg/injection, schedule: Q01DX009 (ip), vehicle: suspension in saline)?
Answer: 100 % of control

Question: And the T/C (dose: 200.0 mg/kg/injection, schedule: Q01DX009 (ip), vehicle: suspension in saline)?
Answer: 95 % of control

Question: What does the source list for CCOC(=O)C12C3C(=O)N(CC)C(=O)C3ON1OC1C(=O)N(CC)C(=O)C12 (centres undefined)?
Answer: T/C (dose: 60.0 mg/kg/injection, schedule: Q01DX005 (ip), vehicle: saline with Tween-80): 100 % of control; T/C (dose: 120.0 mg/kg/injection, schedule: Q01DX005 (ip), vehicle: saline with Tween-80): 100 % of control; T/C (dose: 240.0 mg/kg/injection, schedule: Q01DX005 (ip), vehicle: saline with Tween-80): 95 % of control

Question: Which results are given for O=NNc1ccc(Br)cn1?
Answer: T/C (dose: 1.5 mg/kg/injection, schedule: Q01DX008 (ip), vehicle: water): 100 % of control; T/C (dose: 1.56 mg/kg/injection, schedule: Q01DX009 (ip), vehicle: water): 115 % of control; T/C (dose: 6.25 mg/kg/injection, schedule: Q01DX008 (ip), vehicle: water): 154 % of control; T/C (dose: 12.5 mg/kg/injection, schedule: Q01DX009 (ip), vehicle: water): 184 % of control; T/C (dose: 25.0 mg/kg/injection, schedule: Q01DX008 (ip), vehicle: water): 181 % of control

Question: Which results are given for C1CCN(P(N2CCCCC2)N2CCCCC2)CC1?
Answer: T/C (dose: 25.0 mg/kg/injection, schedule: Q04DX003 (ip), vehicle: saline with Tween-80): 100 % of control; T/C (dose: 50.0 mg/kg/injection, schedule: Q04DX003 (ip), vehicle: saline with Tween-80): 100 % of control; T/C (dose: 100.0 mg/kg/injection, schedule: Q04DX003 (ip), vehicle: saline with Tween-80): 102 % of control and 104 % of control

Question: With CCCCCCCCN1CCCN(/N=C/c2c3c(O)c4c(O)c(C)c5c(c4c2O)C(=O)C(C)(O/C=C/C(OC)C(C)C(OC(C)=O)C(C)C(O)C(C)C(O)C(C)/C=C/C=C(C)C(=O)N3)O5)CC1 (centres undefined) as the molecule, how does the T/C [5] read?
Answer: 97 % of control

Question: What about the T/C [6] of the same molecule?
Answer: 100 % of control

Question: And the T/C [7]?
Answer: 91 % of control

Question: COc1ccc(C2OC(=O)C=C(C)O2)cc1 (centres undefined) was tested. Which T/C [1] did it give?
Answer: 104 % of control

Question: What about the T/C [2] of the same molecule?
Answer: 98 % of control

Question: What about the T/C [3] of the same molecule?
Answer: 117 % of control

Question: Which T/C (dose: 0.25 mg/kg/injection, schedule: Q04DX003 (ip), vehicle: saline with Tween-80) does the source give for O=C(NCCCCCCCCCCNC(=O)N1CC1)N1CC1 here?
Answer: 104 % of control

Question: And the T/C (dose: 0.5 mg/kg/injection, schedule: Q04DX003 (ip), vehicle: saline with Tween-80)?
Answer: 108 % of control

Question: And the T/C (dose: 1.56 mg/kg/injection, schedule: Q01DX009 (ip), vehicle: saline with Tween-80)?
Answer: 165 % of control

Question: What about the T/C (dose: 2.0 mg/kg/injection, schedule: Q04DX003 (ip), vehicle: saline with Tween-80) of the same molecule?
Answer: 159 % of control

Question: What about the T/C (dose: 3.0 mg/kg/injection, schedule: Q04DX003 (ip), vehicle: saline with Tween-80) of the same molecule?
Answer: 209 % of control

Question: And the T/C (dose: 3.13 mg/kg/injection, schedule: Q04DX003 (ip), vehicle: saline with Tween-80)?
Answer: 185 % of control

Question: What about the T/C (dose: 4.5 mg/kg/injection, schedule: Q04DX003 (ip), vehicle: saline with Tween-80) of the same molecule?
Answer: 204 % of control

Question: And the T/C (dose: 6.25 mg/kg/injection, schedule: Q01DX009 (ip), vehicle: saline with Tween-80)?
Answer: 95 % of control

Question: What about the T/C (dose: 6.25 mg/kg/injection, schedule: Q04DX003 (ip), vehicle: saline with Tween-80) of the same molecule?
Answer: 150 % of control

Question: With CCCCCCCCCCNCCSSCCNC(C)=O as the molecule, how does the T/C (dose: 1.56 mg/kg/injection, schedule: Q01DX005 (ip), vehicle: Klucel (hydroxypropylcellulose) (HPC)) read?
Answer: 103 % of control

Question: What about the T/C (dose: 3.12 mg/kg/injection, schedule: Q01DX005 (ip), vehicle: Klucel (hydroxypropylcellulose) (HPC)) of the same molecule?
Answer: 100 % of control

Question: What about the T/C (dose: 6.25 mg/kg/injection, schedule: Q01DX005 (ip), vehicle: Klucel (hydroxypropylcellulose) (HPC)) of the same molecule?
Answer: 105 % of control

Question: And the T/C (dose: 12.5 mg/kg/injection, schedule: Q01DX005 (ip), vehicle: Klucel (hydroxypropylcellulose) (HPC))?
Answer: 104 % of control

Question: And the T/C (dose: 25.0 mg/kg/injection, schedule: Q01DX005 (ip), vehicle: Klucel (hydroxypropylcellulose) (HPC))?
Answer: 102 % of control

Question: And the T/C (dose: 50.0 mg/kg/injection, schedule: Q01DX005 (ip), vehicle: Klucel (hydroxypropylcellulose) (HPC))?
Answer: 98 % of control and 103 % of control

Question: Which T/C [5] does the source give for CCN(Cc1ccc(C(=O)OC)cc1)c1cccc(NC(C)=O)c1 here?
Answer: 98 % of control

Question: What about the T/C [6] of the same molecule?
Answer: 100 % of control

Question: What about the T/C [7] of the same molecule?
Answer: 99 % of control

Question: With CSc1nc2ccc(NC(=O)CCC(=O)O)cc2s1 as the molecule, how does the T/C (dose: 6.25 mg/kg/injection, schedule: Q01DX009 (ip), vehicle: Klucel (hydroxypropylcellulose) (HPC)) read?
Answer: 104 % of control

Question: And the T/C (dose: 12.5 mg/kg/injection, schedule: Q01DX009 (ip), vehicle: Klucel (hydroxypropylcellulose) (HPC))?
Answer: 101 % of control

Question: And the T/C (dose: 25.0 mg/kg/injection, schedule: Q01DX009 (ip), vehicle: Klucel (hydroxypropylcellulose) (HPC))?
Answer: 107 % of control

Question: For CNC(=S)NNc1ccccn1, which T/C (dose: 12.5 mg/kg/injection, schedule: Q01DX009 (ip), vehicle: other) is on record?
Answer: 105 % of control

Question: And the T/C (dose: 25.0 mg/kg/injection, schedule: Q01DX009 (ip), vehicle: other)?
Answer: 102 % of control

Question: What about the T/C (dose: 50.0 mg/kg/injection, schedule: Q01DX009 (ip), vehicle: other) of the same molecule?
Answer: 104 % of control

Question: And the T/C (dose: 100.0 mg/kg/injection, schedule: Q01DX009 (ip), vehicle: other)?
Answer: 101 % of control

Question: What about the T/C (dose: 200.0 mg/kg/injection, schedule: Q01DX009 (ip), vehicle: other) of the same molecule?
Answer: 95 % of control

Question: What does the source list for CC(=O)NC1C(S[As](C)C)OC(COC(C)=O)C(OC(C)=O)C1OC(C)=O (centres undefined)?
Answer: T/C (dose: 12.5 mg/kg/injection, schedule: Q01DX009 (ip), vehicle: saline with Tween-80): 102 % of control; T/C [4]: 113 % of control; T/C [5]: 116 % of control; T/C [7]: 115 % of control
